From patent publication US8163907B2, “Dihydropyridine calcium antagonist compounds, preparation methods, and medical uses thereof” (Cosunter Pharmaceutical Company, priority 2008, dated 2012)
Counter-ions that a name gives are not always drawn. One block for each molecule: values may come before it.

Tested on: isolated rat's thoracic aorta ring
Assay: Contraction of an isolated rat's thoracic aorta ring caused by KCl (vascular relaxation)
Format: cell-based
Conditions: 80 mmol/L KCl, n=6; for IC50: isolated rat thoracic aorta ring with complete endodermis, read-out: IC50, inhibition of contraction of a vascular ring with complete endodermis caused by KCl
Text: The effect of compounds of the present invention to the contraction of an isolated rat's thoracic aorta ring caused by KCl is described as follows:
The present invention synthesizes 21 new DHP compounds, and some of the compounds are selected for performing pharmacological tests. With reference to Comparison of vasodilatation effect between quercetin and rutin in the isolated rat thoracic aorta authored by ZHOU Xin-mei, YAO Hui, XIA Man-li, et al, and published in Journal of Zhejiang University: Medical Sciences, 2006, 35(1), 29-33 for an embodiment.
A male SD rat, 240-260 g, supplied by Institute of Laboratory Animal Breeding and Reproduction, Qing Long Shan of Jiang Ning. Certificate of Quality No.: SCXK (So) 2002-0018.
NaCl:118.3 mmol/L, KCl:4.7 mmol/L, CaCl2: 2.5 mmol/L, MgSO4.7H2O:1.2 mmol/L, KH2PO4:1.2 mmol/L, NaHCO3:25 mmol/L, and glucose:11.1 mmol/L.
Hit a male rat at its head until it faints. Quickly remove the thoracic aorta, and put it into a K-H solution passed with a mixed gas having 95% O2+5% CO2. Carefully remove connective tissues around the thoracic aorta and cut the blood vessel into a vascular ring of 3 mm wide. Avoid any excessive pulling to prevent damages to the endodermis. Hang the vascular ring into a bathing trough containing 30 ml of K-H liquid, and keep passing the mixed gas of 95% O2+5% CO2, and maintain the temperature at 37±0.5[…]. Adjust the rest tension to 2.0 g. Keep it in equilibrium for 2 hrs, and change the liquid once every 15 min.
Inspection of the activity of the endodermis of the blood vessel: After the thoracic aorta ring is stable, change the liquid once, and add 1 μmol/L of NA into the bathing trough. After the contraction has reached the peak value for 15 min., add 1 μmol/L of Ach. If the expected contraction of the vascular relaxation is greater than 60% after Ach is added, then the endodermis is considered to be complete, or else the endodermis will be damaged.
A thoracic aorta ring with a complete endodermis is selected for conducting the experiment. After the changed liquid is stable, Add 80 mmol/L KCl to induce the maximum contraction amplitude, sequentially accumulate the medications, such that the medicine concentrations are 0.05 μmol/L, 0.1 μmol/L, 0.5 μmol/L, 1 μmol/L, 2 μmol/L, 4 μmol/L, and 10 μmol/L respectively. Record the change of tensions. The vascular relaxation level is indicated by the inhibition rate. In other words, KCl induces a difference of values between the maximum tension of the contraction and the vascular tension after medicines with different concentrations are added. The ratio of differences of the values to the maximum contraction amplitude induced by KCl reflects the level of vascular relaxation. The sample size of the arota rings for each medicine group is 6. In other words, the experiment is performed repeatedly for 6 times.

[1] = Rattus norvegicus, 0.1 μmol/L, x±S, read-out: Inhibition Rate (%)
[2] = Rattus norvegicus, 0.5 μmol/L, x±S, read-out: Inhibition Rate (%)
[3] = Rattus norvegicus, 1 μmol/L, x±S, read-out: Inhibition Rate (%)
[4] = Rattus norvegicus, 2 μmol/L, x±S, read-out: Inhibition Rate (%)
[5] = Rattus norvegicus, 4 μmol/L, x±S, read-out: Inhibition Rate (%)

Molecule: Levamlodipine Besylate [reference compound]
Inhibition Rate (%) (0.1 μmol/L, x±S): 4.5 ± 0.6%
Inhibition Rate (%) (0.5 μmol/L, x±S): 18.4 ± 2.6%
Inhibition Rate (%) (1 μmol/L, x±S): 37.7 ± 3.6%
Inhibition Rate (%) (2 μmol/L, x±S): 46.8 ± 4.1%
Inhibition Rate (%) (4 μmol/L, x±S): 69.0 ± 5.9%
Inhibition Rate (%) (10 μmol/L, x±S): 84.6 ± 6.1%
IC50: 4100 nM

Molecule: COC(=O)C1=C(C)NC(C)=C(C(=O)OCCN2CCN(CCOC(c3ccccc3)c3ccccc3)CC2)C1c1cccc([N+](=O)[O-])c1.Cl (stereo not drawn) [Compound I6, 1,4-dihydro-2,6-dimethyl-4-(3-nitrophenyl)-3,5-pyridinecarboxylic acid methyl ester2-(N-4-(diphenylmethoxyethyl)piperazinyl)ethyl ester hydrochloride]
Inhibition Rate (%) (0.1 μmol/L, x±S): 9.3 ± 1.0%
Inhibition Rate (%) (0.5 μmol/L, x±S): 20.5 ± 2.5%
Inhibition Rate (%) (1 μmol/L, x±S): 33.7 ± 2.4%
Inhibition Rate (%) (2 μmol/L, x±S): 49.7 ± 3.5%
Inhibition Rate (%) (4 μmol/L, x±S): 66.9 ± 3.6%
Inhibition Rate (%) (10 μmol/L, x±S): 79.0 ± 4.5%
IC50: 1900 nM

Molecule: COC(=O)C1=C(C)NC(C)=C(C(=O)OCCCN2CCN(CCOc3ccccc3OC)CC2)C1c1cccc([N+](=O)[O-])c1 (stereo not drawn) [Compound I4, 1,4-dihydro-2,6-dimethyl-4-(3-nitrophenyl)-3,5-pyridinecarboxylic acid methyl ester 3-(N-4-(2-(2-methoxyphenoxy)ethyl)piperazinyl)propyl ester hydrochloride]
IC50: 2000 nM
inhibition at 0.1 µM [1]: 13.2 ± 1.3%
inhibition at 0.5 µM [2]: 20.5 ± 2.2%
inhibition at 1 µM [3]: 33.8 ± 2.8%
inhibition at 2 µM [4]: 59.4 ± 4%
inhibition at 4 µM [5]: 62.4 ± 4.8%
inhibition at 10 µM (Rattus norvegicus, 10 μmol/L, x±S, read-out: Inhibition Rate (%)): 72 ± 4.7%

These reach a lower IC50. Values come first.

IC50: 800 nM
Molecule: COC(=O)C1=C(C)NC(C)=C(C(=O)OCCCN2CCN(CC(O)COc3ccccc3OC)CC2)C1c1cccc([N+](=O)[O-])c1.Cl (stereo not drawn) [II2, 1,4-dihydro-2,6-dimethyl-4-(3-nitrophenyl)-3,5-pyridinecarboxylic acid methyl ester3-(N-4-(3-(2-methoxyphenoxy)-2-hydroxpropyl)piperazinyl)propyl ester hydrochloride]
Inhibition Rate (%) (0.1 μmol/L, x±S): 11.0 ± 1.5%
Inhibition Rate (%) (0.5 μmol/L, x±S): 32.2 ± 3.0%
Inhibition Rate (%) (1 μmol/L, x±S): 50.7 ± 5.7%
Inhibition Rate (%) (2 μmol/L, x±S): 65.2 ± 4.2%
Inhibition Rate (%) (4 μmol/L, x±S): 93.4 ± 3.1%
Inhibition Rate (%) (10 μmol/L, x±S): 101.2 ± 3.2%

IC50: 500 nM
Molecule: COC(=O)C1=C(C)NC(C)=C(C(=O)OCCCCN2CCN(CCOc3ccccc3OC)CC2)C1c1cccc([N+](=O)[O-])c1.Cl (stereo not drawn) [Compound I5, 1,4-dihydro-2,6-dimethyl-4-(3-nitrophenyl)-3,5-pyridinecarboxylic acid methyl ester-4-(N-4-(2-(2-methoxyphenoxy)ethyl)piperazinyl)butyl ester hydrochloride]
Inhibition Rate (%) (0.1 μmol/L, x±S): 24.5 ± 3.2%
Inhibition Rate (%) (0.5 μmol/L, x±S): 47.9 ± 3.9%
Inhibition Rate (%) (1 μmol/L, x±S): 66.0 ± 4.0%
Inhibition Rate (%) (2 μmol/L, x±S): 75.0 ± 3.5%
Inhibition Rate (%) (4 μmol/L, x±S): 91.6 ± 3.2%
Inhibition Rate (%) (10 μmol/L, x±S): 100.1 ± 3.0%

IC50: 200 nM
Molecule: COC(=O)C1=C(C)NC(C)=C(C(=O)OCCN2CCN(CCOc3ccccc3OC)CC2)C1c1cccc([N+](=O)[O-])c1 (stereo not drawn) [Compound I14, 1,4-dihydro-2,6-dimethyl-4-(3-nitrophenyl)-3,5-pyridinecarboxylic acid methyl ester2-(N-4-(2-(2-methoxyphenoxy)ethyl)piperazinyl)ethyl ester hydrochloride]
inhibition at 0.05 µM (Rattus norvegicus, 0.05 μmol/L, x±S, read-out: Inhibition Rate (%)): 27.4 ± 3.4%
inhibition at 0.1 µM [1]: 35.7 ± 3%
inhibition at 0.5 µM [2]: 62.9 ± 6.8%
inhibition at 1 µM [3]: 81.7 ± 3.3%
inhibition at 2 µM [4]: 96.2 ± 4.5%
inhibition at 4 µM [5]: 101 ± 3.4%
